Assay [1] concerns smooth muscle cAMP levels. Put plainly: Radioimmunoassay of cAMP in iliac artery rings. The class given is cell-based, rabbit. On the procedure: Radioimmunoassay. Multiple rings from the same artery were incubated in oxygenated Holmans buffer containing L-NAME (300 μM) and indomethacin (10 μM) for 40 min at 37° C. in the presence or absence of 18α-GA (100 μM). Rings were frozen in liquid N2 at time points up to 180 s following addition of ACh or A23187 and stored at −70° C. before extraction of cAMP or cGMP in 6% trichloroacetic acid, followed by neutralization with water saturated diethyl ether and subsequent radioimmunoassay (Amersham UK). PE (1 μM) was added 3 min before the initial control point and control experiments were performed with endothelium-denuded rings. Nucleotide levels were expressed relative to protein content (27).

Assay [2] deals with rabbit iliac artery rings. Put plainly: EDHF-type relaxation of isolated rabbit iliac artery rings constricted with phenylephrine. The class given is cell-based. On the procedure:
Isolated Ring Preparations. Male New Zealand white rabbits (2-2.5 kg) were sacrificed with sodium pentobarbitone (120 mg/kg; i.v.) and the iliac artery removed and transferred to cold Holman's buffer of the following composition (mM): 120 NaCl, 5 KCl, 2.5 CaCl2, 1.3 NaH2PO4, 25 NaHCO3, 11 glucose, and 10 sucrose. […] Endothelium-intact rings were incubated for 40 min with N^G-nitro-L-arginine methyl ester (L-NAME, 300 μM) and indomethacin (10 μM) and following constriction with phenylephrine (PE) cumulative concentration-relaxation curves to ACh or A23187 were constructed. Some preparations were preincubated for 40 min with either 2′5′-dideoxyadenosine (2′5′-DDA, 200 μM), 3-isobutyl-1-methylxanthine (IBMX, 20 μM), 18α-GA (100 μM), glibenclamide (10 μM), the combination of charybdotoxin (100 nM) and apamin (300 nM), or the combination of charybdotoxin (100 nM), apamin (300 nM) and IBMX (20 μM). Concentration-response curves to ACh and A23187 were also constructed for endothelium-denuded rings in the absence/presence of IBMX (20 μM). In experiments with IBMX the concentration of PE used to induce tone was increased from 1 to 3 μM. All reagents were obtained from Sigma, U.K.
(§1) Statistical Analysis All data are given as mean±SEM, where n denotes the number of animals studied for each data point, and were compared by the Student's t-test for paired or unpaired data as appropriate. P<0.05 was considered as significant. Concentration-response curves were assessed by one-way analysis of variance (ANOVA) followed by the Bonferroni multiple comparisons test.

In assay [3] the test system is rabbit iliac artery rings. The class given is cell-based. The following applies: for Effect on PE contractions: 2′,5′-DDA 200 μM, glibenclamide 10 μM, charybdotoxin 100 nM plus apamin 300 nM. On the procedure:
Isolated Ring Preparations. Male New Zealand white rabbits (2-2.5 kg) were sacrificed with sodium pentobarbitone (120 mg/kg; i.v.) and the iliac artery removed and transferred to cold Holman's buffer of the following composition (mM): 120 NaCl, 5 KCl, 2.5 CaCl2, 1.3 NaH2PO4, 25 NaHCO3, 11 glucose, and 10 sucrose. The vessels were stripped of adherent tissue, and rings 2-3 mm wide cut and suspended in organ chambers containing gassed (95% 02, 5% CO2, pH 7.4) buffer at 37 C. Tension was set at 0.25 g and during an equilibrium period of 1 h the tissues were repeatedly washed with fresh buffer and tension readjusted following stress relaxation. Endothelium-intact rings were incubated for 40 min with N^G-nitro-L-arginine methyl ester (L-NAME, 300 μM) and indomethacin (10 μM) and following constriction with phenylephrine (PE) cumulative concentration-relaxation curves to ACh or A23187 were constructed. Some preparations were preincubated for 40 min with either 2′5′-dideoxyadenosine (2′5′-DDA, 200 μM), 3-isobutyl-1-methylxanthine (IBMX, 20 μM), 18α-GA (100 μM), glibenclamide (10 μM), the combination of charybdotoxin (100 nM) and apamin (300 nM), or the combination of charybdotoxin (100 nM), apamin (300 nM) and IBMX (20 μM). Concentration-response curves to ACh and A23187 were also constructed for endothelium-denuded rings in the absence/presence of IBMX (20 μM). In experiments with IBMX the concentration of PE used to induce tone was increased from 1 to 3 μM. All reagents were obtained from Sigma, U.K.

For assay [4], the system named is sandwich preparations of rabbit iliac artery. Put plainly: 'Sandwich' bioassay preparations of iliac artery (endothelium-intact donor ring, denuded detector strip). The format is cell-based.
Excerpt: ‘Sandwich’ preparations. Rings of iliac artery 2-3 mm wide were denuded of endothelium, cut into strips and pierced ˜2 mm from each end using a Monoject needle (0.9 mm×40 mm). These strips were introduced into the lumen of rings of endothelium-intact iliac artery 4-5 mm wide and the tissues sutured together. Composite preparations were then mounted in a Mulvany Multi Myograph (Danish Myo Technology) with the pierced denuded strips hooked onto the large vessel mountings. Tension was initially set at ˜0.25 g and readjusted during an equilibrium period of 1 h. The preparations were then incubated for 40 min with L-NAME (300 μM) and indomethacin (10 μM), constricted with PE (1 or 3 μM), and concentration-response curves constructed for ACh in the presence/absence of IBMX (20 μM), or A23187 in the presence/absence of IBMX (20 μM) or 2′5′DDA (200 μM).
as §1

Assay [5] relates to subintimal smooth muscle cells of rabbit iliac artery strips. Put plainly: Membrane potential experiments (sharp microelectrode) in iliac artery strips. The class given is cell-based. The procedure:
Membrane Potential Experiments. Iliac artery strips were held adventitia down in an oxygenated (95% O2, 5% CO2) organ chamber by a Harp slice grid (ALA Scientific Instruments, USA) superfused (2 ml/min at 37° C.) with Holmans solution containing 300 μM L-NAME and 10 μM indomethacin. Transmembrane potential was recorded with glass capillary microelectrodes (tip resistance of 60-110 M[…] filled with 3M KCl and connected to the headstage of a SEC-10LX amplifier (NPI Electronic, Germany). Successful impalements were achieved following a sudden negative drop in potential from baseline and a stable signal for at least 2 min. To ensure recordings were made from smooth muscle cells the microelectrode was advanced into the subintima using a PCS-5000 micromanipulator (Burleigh Instruments, UK) until there had been 2-3 such negative deflections. After first obtaining control responses to ACh by direct administration into the organ chamber under conditions of no flow, the strips were washed with fresh buffer before incubation with either 200 μM […] alone or the combination of 200 μM 2′,3′-DDA plus 30 μM IBMX followed by repeat exposure to ACh.

Assay [6] relates to gap junctions in isolated rabbit femoral arteries. Put plainly: Dye transfer (calcein AM) from endothelium to media in perfused femoral arteries. The format is cell-based. The following applies: for Space constant of decay of medial fluorescence: calcein AM, control 8.54 μm; for Dye within the vessel wall after intraluminal perfusion: 10 μM dye perfused through the lumen for 30 min. The procedure:
Dye Transfer. […] In control experiments arteries were perfused with 10 μM calcein, which is membrane impermeable. The vessels were subsequently removed from the myograph and fixed in 0.1 M PBS containing 0.2% glutaraldehyde and 2% formalin for 90 min before cryopreservation in OCT compound (Agar Scientific, […], UK), cooled by liquid N2. Cryosections of transverse rings (10 μm thick) were prepared and mounted onto poly-L-lysine-coated slides under Fluorsave (Calbiochem) and imaged with a TCS four-dimensional confocal laser scanning system (Leica) with the filters set for 490 nm excitation and 525 nm emission. A gallery of several images was collected at 0.5-μm steps for each sample followed by image processing by using […] software to obtain a maximum projection image.

The subject of another assay is pig coronary artery. To be noted: cited from earlier work.

As to `C[C@H]1O[C@@H](n2cnc3c(N)ncnc32)C[C@@H]1O` [2′,5′-DDA, 2′,5′-dideoxyadenosine], the “Effect on transient peak in cAMP levels evoked by ACh” value in assay [1] (2′,5′-DDA 200 μM, ACh 3 μM) was “abolished”. Further, the “Maximal relaxation to A23187 in presence of 2′,5′-DDA, % of PE-induced tone” value in assay [2] (2′,5′-DDA 200 μM, A23187-evoked, endothelium-intact rings) was 40.3±8.3%. For the same compound, the “Maximal relaxation to ACh in presence of 2′,5′-DDA” value in assay [2] (2′,5′-DDA 200 μM, ACh-evoked, endothelium-intact rings) is on record as 11.0±1.9%. In assay [3], the “Effect on PE contractions” value was “unaffected”. Also, the “Maximal relaxation to A23187 in sandwich preparations with 2′,5′-DDA, % of PE-induced tone” value in assay [4] (2′,5′-DDA 200 μM) is listed as 18.5±9.2%.
Consider `Nc1ncnc2c1ncn2[C@H]1CC[C@@H](CO)O1` [2′, 3′-DDA, 2′,3′-dideoxyadenoine], for which the “Attenuation of transmission of electrical changes in endothelial membrane potential into subintimal smooth muscle cells” value in assay [5] (200 μM, ACh-evoked) was roughly 75%.
With `Nc1nc2c(nc(Br)n2[C@@H]2O[C@@H]3COP(=O)(O)O[C@H]3[C@H]2O)c(=O)[nH]1` [8-bromo-cGMP], the “Space constant of decay of medial fluorescence” value in assay [6] (1 mM nucleotide analogue) was 8.39 ± 0.44 μm.
Regarding `CC1(C)[C@@H](O)CC[C@]2(C)[C@H]3C(=O)C=C4[C@H]5C[C@@](C)(C(=O)O)CC[C@]5(C)CC[C@@]4(C)[C@]3(C)CC[C@@H]12` [18α-GA, 18α-glycyrrhetinic acid], the “Effect on nucleotide (cAMP) accumulation evoked by A23187” value in assay [1] (18α-GA 100 μM, A23187 3 μM) is on record as “no significant effect”. For the same compound, the “Effect on transient rise in cAMP levels evoked by ACh” value in assay [1] (18α-GA 100 μM, ACh 3 μM) was “abolished”. In addition, in assay [2] (18α-GA 100 μM), the “Effect on EDHF-type relaxations evoked by A23187” value is “had no effect” and the “Effect on EDHF-type relaxations evoked by ACh” value is recorded as “effectively abolished”.
One may read the EC50 as the concentration that produces a half-maximal response. On to `CC(=O)OCC[N+](C)(C)C` [ACh, acetylcholine], for which the “Increase (elevation) in smooth muscle cAMP levels” value in assay [1] (rings incubated with L-NAME and indomethacin, endothelium-dependent) worked out at 1.5 fold. In assay [2] (Oryctolagus cuniculus, endothelium-intact rings, L-NAME + indomethacin, control of IBMX / 2′,5′-DDA series, read-out: EC50 of EDHF-type relaxation (control)), the 50% effective concentration (EC50) came out at 555 ± 121 nM. For the same compound, the “Maximal EDHF-type relaxations, % of PE-induced tone” value in assay [2] (approximate, at concentrations ~3 μM, L-NAME 300 μM + indomethacin 10 μM) is listed as roughly 40%. Further, the “Maximal EDHF-type relaxation, % of PE-induced tone (control)” value in assay [2] (endothelium-intact rings, L-NAME 300 μM + indomethacin 10 μM, control of IBMX / 2′,5′-DDA series) is given as 36.0±5.0%. In assay [5] (3 μM Ach, intact endothelium), the “Subintimal hyperpolarization sustained below baseline” value is recorded as roughly 20 mV.
Turning to `CC(C)Cn1c(=O)n(C)c(=O)c2[nH]cnc21` [IBMX, 3-isobutyl-1-methylxanthine], in assay [2] (IBMX 20 μM, A23187-evoked, endothelium-intact rings, control 50.2%), the “Maximal relaxation to A23187 in presence of IBMX” value is 73.0 ± 8.5%. Also, the “Maximal relaxation to ACh in presence of IBMX” value in assay [2] (IBMX 20 μM, ACh-evoked, endothelium-intact rings, control 36.0%) was 65.5±4.5%. Also, the “Reversal of the 2′,3′-DDA block of hyperpolarization” value in assay [5] (IBMX 30 μM after 200 μM 2′,3′-DDA) is “completely reversed”. Besides, the “Space constant of decay of medial fluorescence” value in assay [6] (20 μM IBMX) was 11.50±0.80 μm and ≈ 12 μm. Besides, the “Maximal relaxation to A23187 in sandwich preparations with IBMX” value in assay [4] (IBMX 20 μM) worked out at 70.0±6.50%.
Take `CNC[C@H](O)c1cccc(O)c1` [PE, phenylephrine]: in assay [3] (1 μM PE, L-NAME 300 μM and indomethacin 10 μM, intact endothelium, pooled data), the PE-evoked constrictions is 2.0 ± 0.1 g. The “Initial tension restored by PE in presence of IBMX” value in assay [3] (3 μM PE, IBMX 20 μM, pooled data) stood at 1.8 ± 0.1 g.
As for `O=C(O)CN(CC(=O)O)Cc1cc2c(cc1O)Oc1cc(O)c(CN(CC(=O)O)CC(=O)O)cc1C21OC(=O)c2ccccc21` [calcein], the “Dye within the vessel wall after intraluminal perfusion” value in assay [6] was “only autofluorescence of the internal elastic lamina was evident”.
Turning to `COc1cc2c3cc1Oc1cc(ccc1O)C[C@@H]1c4c(cc(OC)c(O)c4Oc4ccc(cc4)C[C@@H]3N(C)CC2)CC[N+]1(C)C` [d-tubocurarine], in the assay with pig coronary artery, the “Effect on endothelial hyperpolarization evoked by 0.5 μM A23187” value was “abolished”; the “Effect on mechanical relaxation and endothelium and smooth muscle hyperpolarizations evoked by substance P” value is “inhibited”; the “Effect on relaxation and smooth muscle hyperpolarization evoked by 0.5 μM A23187” value is listed as “unaffected”.
For the compound `COc1ccc(Cl)cc1C(=O)NCCc1ccc(S(=O)(=O)NC(=O)NC2CCCCC2)cc1` [glibenclamide], in assay [2] (glibenclamide 10 μM), the “Effect on EDHF-type relaxations evoked by A23187” value is recorded as “did not significantly affect” and the “Effect on EDHF-type relaxations evoked by ACh” value is “did not significantly affect”. In addition, the “Effect on PE contractions” value in assay [3] is given as “unaffected”.
calcein AM: the “Dye within the vessel wall after intraluminal perfusion” value in assay [6] is listed as “detected within the vessel wall”. For the same compound, the “Space constant of decay of medial fluorescence (control conditions)” value in assay [6] (calcein AM 10 μM, L-NAME + indomethacin) is given as 8.54±0.39 μm.

Source of the values: patent US20030105165A1, “Gap junctions and EDHF” (priority 2001, published 2003).
